In patent US11613775B2, “Measuring DNA polymerase fidelity” (Northwestern University, priority 2017, dated 2023):
Read-outs that look alike come from different tables or passages of the source.

Tests used:
[1] = tested on: extension templates (TT, TA, TC, and TG); assay: Nucleotide imbalance fidelity assay (rare base titration, NGS readout); format: biochemical
Text: Extension templates (TT, TA, TC, and TG) were designed for all four rare base contexts (Table 2). Templates were 100 bp in length and contained a single T, A, C, or G, or Error-Enriched Site (EES), near the middle of the template. Extension templates were designed to contain only three bases, with the exception of the EES (fourth base) and the extension primer-binding site. For each template type, the EES was flanked by 3 degenerate bases before the EES and 3 degenerate bases after the EES in order to create the following sequence context libraries: VVVTVVV, BBBABBB, DDDCDDD, and HHHGHHH (using IUPAC ambiguity codes). Because each of the 6 degenerate sites can be composed of 3 possible bases, each template library contained 729 (3^6) unique sequence contexts surrounding the EES. With the exception of the 6 bases flanking the EES, template sequences within a given library were identical. All templates contained a 3′ dideoxy-C modification to prevent extension from the template strand during a final PCR amplification step. Extension templates were purified via PAGE (Integrated DNA Technologies).
Individual annealing reactions were performed for each template type (TT, TA, TC, TG). Primer/template DNA was prepared by mixing PEXT with each template library in a 1:1.5 molar ratio (70 nM primer: 105 nM template) in a 1× reaction buffer specific to each DNA polymerase being tested (Table 1). The extension primer was annealed to template DNA by incubation at 95° C. for 2 minutes, followed by a −0.1° C./sec ramp until reaching 4° C.
Primer extension reactions were set up in duplicate for each condition being tested. Biological replicate reactions were performed in parallel, with the same annealed primer/template sample used for both replicates. For each DNA polymerase and rare base context of interest, 9 rare base concentrations were tested (log-fold dilutions from 10 μM-0.1 pM) while the concentration of the 3 non-rare bases was held constant at 10 μM (Bioline).
Primer extension reactions consisted of 1 μL of annealing reaction, 1× dNTP stocks ([…]+variable [dRTP]), variable DNA polymerase units, and 1×DNA polymerase reaction buffer in a 10 μL reaction. Extension reaction conditions for DNA polymerases tested are described in Table 1. Extension reactions were incubated for 1 hour and stored at −20° C. until purification. The Fluent Automated Liquid Handling Platform (Tecan) was used to set up all primer extension reactions.
The sample preparation pipeline for NGS was adapted from a previous protocol (Ref. 28; herein incorporated by reference in its entirety). Products from individual rare base extension reactions were column purified in 96-well plate format using the ZR-96 DNA Clean & Concentrator-5 (Deep well format) kit (Zymo Research). Purified DNA products were eluted in 10 μL of water and stored at −20° C. until ligation. Next, a 22 bp universal tag, common sequence 2 (CS2) of the Fluidigm Access Array Barcode Library for Illumina Sequencers (Fluidigm), synthesized as duplex DNA with a 5′ phosphate modification and PAGE purified (Integrated DNA Technologies, Table 2) was blunt-end ligated to the 3′ end of extended products. Ligation reactions were carried out in 10 μL volumes and consisted of 6 μL of purified product, 30 nM CS2 duplex DNA, 1× T4 DNA Ligase Reaction Buffer (New England Biolabs), and 2000 Units of T4 DNA Ligase (New England Biolabs). Ligation reactions were incubated at 16° C. for 16 hours. Ligated products were stored at −20° C. until PCR.
PCR was performed with barcoded primer sets from the Access Array Barcode Library for Illumina Sequencers (Fluidigm) to label extension products from up to 384 individual reactions. Each PCR primer set contained a unique barcode in the reverse primer. From 5′-3′, the forward PCR primer (PE1_CS1) contained a 25 base paired-end Illumina adapter 1 sequence followed by CS1. The binding target of the forward PCR primer was the reverse complement of the CS1 tag built into PEXT. […]

[2] = previously reported; cited from earlier work
[3] = previously reported; cited from earlier work; remark: listed apart in the source
[4] = previously reported; cited from earlier work; remark: listed apart in the source
[5] = previously reported; cited from earlier work; remark: listed apart in the source
[6] = previously reported; cited from earlier work; remark: listed apart in the source
[7] = previously reported; cited from earlier work; remark: listed apart in the source
lacZ template = conditions: cited from earlier work
[8] = "C" template context, lowest [dRTP] tested (10^−7 μM)
[9] = All Four Contexts, fit of duplicate data from all four template contexts (n = 8), average FC50
[10] = BBBABBB template context, n = 2
[11] = DDDCDDD template context, n = 2
[12] = HHHGHHH template context, n = 2
[13] = VVVTVVV template context, n = 2

Phi29: high fidelity polymerase with proofreading ability (New England Biolabs)
preferred error type [1, 8]: C:dTTP
FC50 [1, 9]: 0.000861 µM
FC50 [1, 10]: 0.000877 µM
preferred error type ([1]; DDDCDDD context, −1 G): C:dATP
preferred error type ([1]; DDDCDDD context, −1 T): C:dTTP
FC50 [1, 11]: 0.00125 µM
FC50 [1, 12]: 0.00139 µM
FC50 [1, 13]: 0.000475 µM
estimated (FC50-derived) error rate versus mean of the two reported literature error rates ([1]; average FC50 converted with Equation 9): 2.7 fold
Error Rate [2]: 0.0000095 errors/bp
Error Rate [3]: 0.000003 errors/bp

Taq: widely used commercial DNA polymerase (New England Biolabs)
preferred error type ([1]; "A" template context, lowest [dRTP] tested (10^−7 μM)): A:dATP
preferred error type [1, 8]: C:dATP
preferred error type ([1]; "G" template context, lowest [dRTP] tested (10^−7 μM)): G:dTTP
FC50 [1, 9]: 0.00267 µM
FC50 [1, 10]: 0.00261 µM
FC50 [1, 11]: 0.00215 µM
FC50 [1, 12]: 0.00208 µM
FC50 [1, 13]: 0.00405 µM
Error Rate [4]: 0.00021 errors/bp
Error Rate [5]: 0.00011 subs/bp
Error Rate [6]: 0.0002 subs/bp
Error Rate [7]: 0.00018 errors/bp

B1: Sulfolobus solfataricus Dpo4: a close homologue of S. islandicus Dpo4, literature data (protein, UniProt Q97W02 1-352, looked up)
DNA polymerase IV: MIVLFVDFDYFYAQVEEVLNPSLKGKPVVVCVFSGRFEDSGAVATANYEARKFGVKAGIPIVEAKKILPNAVYLPMRKEVYQQVSSRIMNLLREYSEKIEIASIDEAYLDISDKVRDYREAYNLGLEIKNKILEKEKITVTVGISKNKVFAKIAADMAKPNGIKVIDDEEVKRLIRELDIADVPGIGNITAEKLKKLGINKLVDTLSIEFDKLKGMIGEAKAKYLISLARDEYNEPIRTRVRKSIGRIVTMKRNSRNLEEIKPYLFRAIEESYYKLDKRIPKAIHVVAVTEDLDIVSRGRTFPHGISKETAYSESVKLLQKILEEDERKIRRIGVRFSKFIEAIGLDKFFDT
error preferences (lacZ template; at A sites): A:dATP>A:dCTP>A:dGTP
error preferences (lacZ template; at C sites): C:dCTP>C:dATP=C:dTTP
error preferences (lacZ template; at G sites): G:dTTP>G:dGTP>G:dATP
error preferences (lacZ template; at T sites): T:dGTP>T:dCTP T:dTTP
